Like-named read-outs stand apart in the source and are kept apart here.
Experiments:
IMP-1 = biological target: T1, IMP-1 (Serratia marcescens, UniProt P52699); assay: MBL inhibition, reporter substrate method, IMP-1; format: biochemical
T1 construct: made in house; host or cells: E. coli BL21(DE3) derivative, pET-9a
Experimental: (§1) Compounds were prepared in DMSO at a final concentration of 50 mM prior to dilution in the assay buffer. The reaction rate was measured as the variation of absorbance observed upon substrate hydrolysis in a UV-Vis spectrophotometer or microplate reader at a wavelength of 300 nm (imipenem, meropenem), 260 nm (cefotaxime), or 482 nm (nitrocefin) and in the presence of a purified MBL enzyme (such as VIM-1, VIM-2, VIM-4, NDM-1, and IMP-1, at a final concentration ranging from 1 to 70 nM).
(§2) These enzymes were overproduced in derivatives of E. coli BL21(DE3) carrying a pET-9 a (IMP-1, VIM-1, VIM-2, and VIM-4) or pET-15 b (NDM-1) vector into which the metallo-β-lactamase-encoding open reading frame was cloned. Bacterial strains were grown in the auto-inducing medium, ZYP-5052, supplemented with 50 μg/mL kanamycin for 24 h at 37 °C [38]. IMP-1, VIM-1, VIM-2, and VIM-4 were purified by ion-exchange and gel filtration chromatography using an AKTA Purifier platform (GE Healthcare, Uppsala, Sweden) as previously described. NDM-1 (residues 37-270) was produced as an amino-terminal 6 xHis-tag fusion protein and was purified using affinity chromatography. After growth for 26 h at 25 °C, bacterial cells were harvested by centrifugation (10,000× g, 30 min, 4 °C), resuspended in 10 mM HEPES buffer (pH 7.5) containing 0.15 M NaCl (buffer A) in one-fifth of the original culture volume, and lysed by sonication. Cellular debris was removed by centrifugation (12,000× g, 40 min, 4 °C). The clarified sample was loaded on a HisTrap HP column (bed volume, 5 mL; GE Healthcare), followed by a wash step (25 mL) with buffer A containing 20 mM imidazole. Proteins were eluted using buffer A containing 350 mM imidazole. The resulting protein sample was desalted (HiPrep 26/10 Desalting column, GE Healthcare) using 20 mM triethanolamine (pH 7.2) supplemented with 50 μM ZnSO4 and concentrated using an Amicon Ultra-15 (MW cut-off, 10 kDa; Millipore, Burlington, MA, USA). The concentrated sample was loaded on a Superdex 75 prep grade column (XK16/100 column; bed volume, 140 mL; GE Healthcare) and the proteins eluted with buffer A containing 50 μM ZnSO4. The active fractions were pooled and stored at −20 °C. The purity of the protein preparations was estimated >95% by SDS-PAGE analysis. The authenticity of the enzyme preparations was confirmed by electron spray ionization mass spectrometry, as previously described.
(§3) The inhibition constants (Ki) were determined on the basis of a model of competitive inhibition by analyzing the dependence of the ratio v0/vi (v0, hydrolysis velocity in the absence of inhibitor; vi, hydrolysis velocity in the presence of inhibitor) as a function of [I] as already described. The slope of the plot of v0/vi vs. [I], which corresponds to Km^S/(Km^S + [S])Ki (where Km^S is the Km value of the reporter substrate and [S] its concentration in the reaction mixture) and allowed the calculation of the Ki value. Alternatively, a Dixon plot analysis was carried out by measuring the initial hydrolysis rates in the presence of variable concentrations of inhibitor and substrate. This allowed Ki values to be determined and supported the hypothesis that the various compounds behaved as competitive inhibitors of the various tested enzymes. The assays were performed in triplicate.

VIM-2 = biological target: T2, VIM-2 (Escherichia coli, UniProt Q5U7L7); assay: MBL inhibition, reporter substrate method, VIM-2; format: biochemical
T2 construct: made in house; host or cells: E. coli BL21(DE3) derivative, pET-9a
Experimental: as §1, §2, §3

NDM-1 = NDM-1 (Klebsiella pneumoniae, UniProt C7C422); assay: MBL inhibition, reporter substrate method, NDM-1; format: biochemical
NDM-1, sequence (C7C422 37-270 limits assumed): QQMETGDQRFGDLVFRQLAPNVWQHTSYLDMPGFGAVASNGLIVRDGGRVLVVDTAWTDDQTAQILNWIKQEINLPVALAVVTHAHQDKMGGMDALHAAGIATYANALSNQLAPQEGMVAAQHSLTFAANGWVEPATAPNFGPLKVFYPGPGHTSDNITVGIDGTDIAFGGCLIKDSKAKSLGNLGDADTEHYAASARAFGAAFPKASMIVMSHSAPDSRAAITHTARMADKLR
Experimental: as §1, §2, §3

VIM-4 = biological target: T3, VIM-4 (Pseudomonas aeruginosa, UniProt A0A0F7KYQ8, S205R); assay: MBL inhibition, reporter substrate method, VIM-4; format: biochemical; conditions: read-out: Percentage of Inhibition at 100 μM Inhibitor, VIM-4
T3 construct: made in house; host or cells: E. coli BL21(DE3) derivative, pET-9a
Experimental: as §1, §2, §3

VIM-1 = biological target: T4, VIM-1 (Pseudomonas aeruginosa, UniProt A0A0F7KYQ8); assay: MBL inhibition, reporter substrate method, VIM-1; format: biochemical; conditions: read-out: Inhibition of VIM-1 (dash)
T4 construct: made in house; host or cells: E. coli BL21(DE3) derivative, pET-9a
Experimental: as §1, §2, §3

[1] = tested on: E. coli LZ2310(pLBII-VIM-2); assay: microbe, parasite or virus in culture; format: cell-based, Escherichia coli; conditions: 220 μg added to 30 μg cefoxitin disk (positive control)
Experimental: The potential activity of selected compounds was assessed by the agar disk-diffusion method, according to the CLSI (Clinical Laboratory Standard Institute) recommendations, using Mueller–Hinton medium. The inhibitor (dissolved in DMSO) was added (maximum volume of 15 μL) to a commercially available disk containing a defined amount of a β-lactam antibiotic (30 μg of cefoxitin (Oxoid, Milan, Italy)). After incubation (18 h at 35 °C), the diameter of the growth inhibition zone was measured and compared to that obtained in the absence of inhibitor. DMSO and EDTA (220 μg) were used as negative and positive controls, respectively. Experiments were performed in triplicate.
These tests were performed on an isogenic laboratory strain obtained after transforming Escherichia coli LZ2310 strain with a derivative of the high copy number plasmid pLB-II carrying the cloned blaVIM-2 gene harboring a cloned gene encoding the functional metallo-β-lactamase. Strain LZ2310 is a triple knockout mutant derived from K12 in which the genes encoding for components of the three major efflux pump systems were inactivated (genotype, ∆norE ∆mdfA N43 acrA1) and was used to generate an hyperpermeable background for MBL production and investigate the potential contribution of such mechanisms to inhibitor efflux.

[2] = read-out: Inhibition of IMP-1 (dash in Ki column)
[3] = read-out: Inhibition of VIM-2 (dash in Ki column)
[4] = read-out: Inhibition of NDM-1 (dash in Ki column)
[5] = read-out: Percentage of Inhibition at 100 μM Inhibitor, IMP-1 (dash)
[6] = read-out: Percentage of Inhibition at 100 μM Inhibitor, VIM-2 (dash)
[7] = read-out: Percentage of Inhibition at 100 μM Inhibitor, NDM-1 (dash)

T1 sequence (P52699 19-246 limits assumed): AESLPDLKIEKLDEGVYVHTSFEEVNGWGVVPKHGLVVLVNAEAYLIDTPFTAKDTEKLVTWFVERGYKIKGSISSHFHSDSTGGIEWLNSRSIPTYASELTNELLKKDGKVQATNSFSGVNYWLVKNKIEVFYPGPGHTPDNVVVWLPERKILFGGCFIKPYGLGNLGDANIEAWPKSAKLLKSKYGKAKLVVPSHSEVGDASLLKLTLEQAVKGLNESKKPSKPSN

SMILES: O=C(O)c1ccccc1CNn1c(-c2cc3ccccc3[nH]2)n[nH]c1=S [Compound 5]
- inhibition at 100 µM (IMP-1; [2]): < 40%
- inhibition at 100 µM (VIM-2; [3]): < 40%
- inhibition at 100 µM (NDM-1; [4]): < 40%

SMILES: O=C(O)c1ccccc1CNn1c(CCc2ccccc2)n[nH]c1=S [Compound 8]
- inhibition at 100 µM (IMP-1; [2]): < 40%
- inhibition at 100 µM (VIM-2; [3]): < 40%
- inhibition at 100 µM (NDM-1; [4]): < 40%

SMILES: O=[N+]([O-])c1ccccc1CNn1c(CCc2ccccc2)n[nH]c1=S [Compound 9]
- inhibition at 100 µM (IMP-1; [2]): < 40%
- inhibition at 100 µM (VIM-2; [3]): < 40%
- inhibition at 100 µM (NDM-1; [4]): < 40%

SMILES: O=C(O)c1ccc(CNn2c(CCc3ccccc3)n[nH]c2=S)cc1 [Compound 10]
- inhibition at 100 µM (IMP-1; [2]): < 40%
- inhibition at 100 µM (VIM-2; [3]): < 40%
- inhibition at 100 µM (NDM-1; [4]): < 40%

SMILES: O=C(O)c1ccccc1CNn1c(CC(c2ccccc2)c2ccccc2)n[nH]c1=S [Compound 11]
- inhibition at 100 µM (IMP-1; [2]): < 40%
- inhibition at 100 µM (VIM-2; [3]): < 40%
- Inhibition of NDM-1 (in words) (NDM-1): moderately inhibited
- Ki (NDM-1; hydrazine series, read-out: Ki Value NDM-1): 16.4 ± 2.6 µM

SMILES: O=C(O)c1ccccc1CNn1c(COc2ccc3ccccc3c2)n[nH]c1=S [Compound 12]
- inhibition at 100 µM (IMP-1; [2]): < 40%
- inhibition at 100 µM (VIM-2; [3]): < 40%
- inhibition at 100 µM (NDM-1; [4]): < 40%

SMILES: O=C(O)c1ccccc1C(=O)Nn1c(-c2ccccc2)n[nH]c1=S [Compound 17]
- inhibition at 100 µM (IMP-1; [5]): < 20%
- Ki (VIM-2; hydrazine and hydrazide series, read-out: Ki Value VIM-2): > 100 µM
- inhibition at 100 µM (VIM-2; [6]): < 20%
- inhibition at 100 µM (NDM-1; [7]): < 20%

SMILES: O=C(O)c1ccccc1C(=O)Nn1c(Cc2ccccc2)n[nH]c1=S [Compound 18]
- inhibition at 100 µM (IMP-1; [5]): < 20%
- inhibition at 100 µM (VIM-2; [6]): < 20%
- inhibition at 100 µM (NDM-1; [7]): < 20%

SMILES: O=C(O)c1ccccc1C(=O)Nn1c(-c2cccc(-c3ccccc3)c2)n[nH]c1=S [Compound 19]
- inhibition at 100 µM (IMP-1; read-out: Percentage of Inhibition at 100 μM Inhibitor, IMP-1): 40%
- inhibition at 100 µM (VIM-2; read-out: Percentage of Inhibition at 100 μM Inhibitor, VIM-2): 36%
- inhibition at 100 µM (VIM-4): 41%
- inhibition at 100 µM (NDM-1; read-out: Percentage of Inhibition at 100 μM Inhibitor, NDM-1): 42%
- inhibition at 100 µM (VIM-1): < 30%

SMILES: O=C(O)CCC(=O)Nn1c(-c2cccc(-c3ccccc3)c2)n[nH]c1=S [Compound 20]
- inhibition at 100 µM (IMP-1; [5]): < 20%
- inhibition at 100 µM (VIM-2; [6]): < 20%
- inhibition at 100 µM (NDM-1; [7]): < 20%

SMILES: O=C(O)CN(CCN(CC(=O)O)CC(=O)O)CC(=O)O [EDTA, reference compound]
- Inhibition Zone Diameter [1]: 28 mm

From PMC7465886, “4-(N-Alkyl- and -Acyl-amino)-1,2,4-triazole-3-thione Analogs as Metallo-β-Lactamase Inhibitors: Impact of 4-Linker on Potency and Spectrum of Inhibition” (Biomolecules, 2020)
